Assay results reported in patent US20020045247A1, “METHODS FOR THE PREPARATION OF RETROVIRAL PARTICLES AND CELL LINES DEFICIENT IN THE ALPHA-GALACTOSYL EPITOPE” (priority 1997, published 2002).

Key:
Golgi α-mannosidase I = conditions: addition of inhibitor; cited from earlier work
[1] = test system: complement-mediated inactivation of amphotropic retroviral particles in human serum; test: Retrovirus killing assay in human serum preincubated with soluble carbohydrates; assay type: cell-based; conditions: for effect on complement-mediated retrovirus inactivation / retrovirus survival: 5 mg/ml carbohydrate preincubated with 40% human serum, titered on NIH/3T3 cells
Description: (§1) RVVP samples were assayed for titer of infectious RVVPs on NIH/3T3 cells (ATCC designation CCL 163). 2.5×10^4 cells were plated per well in 6-well plates with 2 ml of DMEM containing 10% fetal bovine serum (D10). The medium in each well was replaced with 2 ml of D10 containing 8 μg/ml of polybrene and retroviral particles were added. Ten-fold dilutions were made from the original well and plates were incubated for 24 h at 37° C. Medium was removed and 2 ml of D10 containing 500 μg/ml of G418 (active weight) was added. The cells were maintained under selection for 7 days with 2 changes of medium during this period. Finally, medium was removed and colonies were stained with methylene blue saturated methanol for 15 min. followed by a brief rinse in water. Wells containing less than 100 colonies were counted to determine titers.
Retroviral vector particles, including those from PA317 or PA317/H-transferase cells, (approximately 500 CFU) were incubated for 30 min. at 37° C. in 100 μl of 40% primate sera diluted in Hank's balanced salt solution (HBSS) and subsequently titered on NIH/3T3 cells to assess retrovirus survival as described above. The different primate sera included human (Diamedix, Cambridge, Mass.), chimpanzee (Southwest Foundation for Research, San Antonio, Tex.), baboon, squirrel monkey, owl monkey and tamarin (all from the New England Regional Primate Research Center, Southborough, Mass.). Data were calculated as percent retrovirus survival in the various sera relative to the number of input CFU (determined by incubation of virus in 40% heat inactivated human serum). […] In the anti-αgalactosyl antibody depletion experiments, retroviral particles were preincubated with either anti-αgalactosyl antibody (90 μg/ml) or buffer alone (PBS; BioWhittaker, Walkersville, Md.) for 30 min. at 37° C. before the addition of either 40% human serum, 40% human serum depleted of anti-αgalactosyl antibodies or 40% squirrel monkey serum for an additional 30 min. incubation. Retrovirus survival was then assessed as described above.

[2] = test system: inactivation of LXSN retroviral vector particles by human serum; test: Inactivation of LXSN retroviral vector particles in human serum in the presence of added sugars (Example 2); assay type: cell-based; conditions: 0.3125, 0.625, 1.25, 2.5 and 5 mg/ml; 40% human serum; relative to samples without added sugars
Description: as §1
LXSN retroviral vector particles were prepared as described above. Aliquots of a 40% solution of human serum in HBSS were then incubated for 15 minutes at room temperature with added sugars. The sugars added were D-glucose (Mallinckrodt, Paris, Ky.) and galactose alpha-1,3 galactose (Dextra Laboratories, Reading, England), and were added at concentrations of 0.3125, 0.625, 1.25, 2.5, and 5 mg/ml. […] The results of these titrations were calculated as fold increase in retroviral vector particle survival relative to the control samples, and are set forth in FIG. 2.

α-glucosidase I = target: T1, α-glucosidase I (Homo sapiens, UniProt Q13724); conditions: addition of inhibitor; cited from earlier work
T1 sequence (Q13724 1-837): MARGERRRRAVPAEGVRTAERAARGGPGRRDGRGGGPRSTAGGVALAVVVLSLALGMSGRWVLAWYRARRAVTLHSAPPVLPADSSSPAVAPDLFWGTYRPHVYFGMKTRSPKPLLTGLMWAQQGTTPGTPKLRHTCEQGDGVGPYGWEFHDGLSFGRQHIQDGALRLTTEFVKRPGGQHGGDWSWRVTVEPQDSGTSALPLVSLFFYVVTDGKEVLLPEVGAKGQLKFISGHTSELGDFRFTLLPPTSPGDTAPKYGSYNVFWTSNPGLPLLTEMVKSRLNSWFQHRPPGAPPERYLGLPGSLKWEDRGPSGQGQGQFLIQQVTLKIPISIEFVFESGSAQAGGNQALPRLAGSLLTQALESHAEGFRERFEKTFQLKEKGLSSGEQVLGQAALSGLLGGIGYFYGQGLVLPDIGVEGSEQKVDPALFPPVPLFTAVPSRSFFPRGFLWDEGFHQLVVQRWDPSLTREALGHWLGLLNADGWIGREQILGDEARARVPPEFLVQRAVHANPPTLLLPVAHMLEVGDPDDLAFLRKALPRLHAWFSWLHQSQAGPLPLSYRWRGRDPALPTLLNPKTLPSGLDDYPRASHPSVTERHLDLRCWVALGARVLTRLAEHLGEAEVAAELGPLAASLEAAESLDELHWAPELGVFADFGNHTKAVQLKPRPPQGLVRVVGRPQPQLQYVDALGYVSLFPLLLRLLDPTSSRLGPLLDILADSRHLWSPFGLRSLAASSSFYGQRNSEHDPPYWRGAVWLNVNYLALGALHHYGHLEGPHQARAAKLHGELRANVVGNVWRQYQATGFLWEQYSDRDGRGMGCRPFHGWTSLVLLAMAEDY

Golgi α-mannosidase II = target: T2, Golgi α-mannosidase II (Homo sapiens, UniProt Q16706); conditions: addition of inhibitor; cited from earlier work
T2 sequence (Q16706 1-1144): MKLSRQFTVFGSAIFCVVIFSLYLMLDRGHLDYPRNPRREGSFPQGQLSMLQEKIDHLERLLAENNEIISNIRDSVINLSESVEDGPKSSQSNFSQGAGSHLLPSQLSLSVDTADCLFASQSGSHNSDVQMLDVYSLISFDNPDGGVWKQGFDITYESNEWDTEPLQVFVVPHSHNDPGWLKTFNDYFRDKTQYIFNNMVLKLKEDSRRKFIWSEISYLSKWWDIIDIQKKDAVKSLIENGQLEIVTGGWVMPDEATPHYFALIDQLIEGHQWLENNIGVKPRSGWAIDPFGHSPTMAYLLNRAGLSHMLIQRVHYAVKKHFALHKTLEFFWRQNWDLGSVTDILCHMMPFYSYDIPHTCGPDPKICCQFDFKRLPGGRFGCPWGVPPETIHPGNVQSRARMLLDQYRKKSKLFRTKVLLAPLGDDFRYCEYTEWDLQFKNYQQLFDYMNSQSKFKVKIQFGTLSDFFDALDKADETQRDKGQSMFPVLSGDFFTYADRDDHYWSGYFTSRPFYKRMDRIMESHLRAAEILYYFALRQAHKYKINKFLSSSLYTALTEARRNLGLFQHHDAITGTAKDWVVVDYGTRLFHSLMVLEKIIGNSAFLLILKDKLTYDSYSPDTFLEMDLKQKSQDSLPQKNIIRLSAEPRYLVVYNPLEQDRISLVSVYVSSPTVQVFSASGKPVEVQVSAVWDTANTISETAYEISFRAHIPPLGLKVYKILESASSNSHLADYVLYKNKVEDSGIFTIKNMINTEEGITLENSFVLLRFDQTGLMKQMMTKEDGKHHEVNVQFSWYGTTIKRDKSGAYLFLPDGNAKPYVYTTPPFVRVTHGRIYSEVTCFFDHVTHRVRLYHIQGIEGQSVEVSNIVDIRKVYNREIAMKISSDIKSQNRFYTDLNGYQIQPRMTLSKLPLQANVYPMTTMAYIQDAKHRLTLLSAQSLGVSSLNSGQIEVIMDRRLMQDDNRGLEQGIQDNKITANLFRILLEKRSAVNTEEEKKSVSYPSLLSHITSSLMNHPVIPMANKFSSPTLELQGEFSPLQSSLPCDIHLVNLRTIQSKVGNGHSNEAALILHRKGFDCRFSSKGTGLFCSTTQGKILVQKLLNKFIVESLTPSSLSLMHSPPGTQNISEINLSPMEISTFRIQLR

## OC[C@H]1NC[C@@H](O)[C@@H](O)[C@@H]1O [1-deoxymannojirimycin]
Golgi α-mannosidase I
  activity of Golgi α-mannosidase I: greatly reduced

## O=C[C@H](O)[C@@H](O)[C@@H](O)[C@H](O)CO [D(+) galactose]
[1]; 5 mg/ml, 40% human serum
  inhibition at 5000 µg/mL: ~25%

## O=C[C@H](O)[C@@H](O)[C@H](O)[C@H](O)CO [D(+) glucose]
[2]
  reduction of inactivation of retroviral vector particles by human serum: not
[1]
  effect on complement-mediated retrovirus inactivation / retrovirus survival: did not affect retrovirus survival

## OC[C@H]1O[C@H](O[C@H]2[C@@H](O)[C@@H](CO)OC(O)[C@@H]2O)[C@H](O)[C@@H](O)[C@H]1O (stereo partly drawn) [Galα1-3Gal, galactose α1-3 galactose]
[2]
  reduction of inactivation of retroviral vector particles by human serum: substantially reduces the inactivation of the retroviral vector particles
[1]
  effect on complement-mediated retrovirus inactivation / retrovirus survival: completely blocked complement-mediated virolysis
[1]; various concentrations, 40% human serum
  inhibition of retrovirus inactivation, dose dependence: inhibited retrovirus inactivation in a dose-dependent manner

## CN1C[C@H](O)[C@@H](O)[C@H](O)[C@H]1CO [N-methyldeoxynojirimycin]
α-glucosidase I
  activity of α-glucosidase I: greatly reduced

## O[C@H]1[C@H](O)[C@@H](O)CN2CC[C@H](O)[C@H]12 [castanospermine]
α-glucosidase I
  activity of α-glucosidase I: greatly reduced

## OC[C@H]1O[C@@](CO)(O[C@H]2O[C@H](CO)[C@@H](O)[C@H](O)[C@H]2O)[C@@H](O)[C@@H]1O [sucrose]
[1]
  effect on complement-mediated retrovirus inactivation / retrovirus survival: did not affect retrovirus survival

## O[C@H]1[C@H]2[C@H](O)CCCN2C[C@H]1O [swainsonine]
Golgi α-mannosidase II
  activity of Golgi α-mannosidase II: greatly reduced

## C[C@@H]1O[C@@H](O)[C@@H](O)[C@H](O)[C@@H]1O [α-L(−) fucose]
[1]
  effect on complement-mediated retrovirus inactivation / retrovirus survival: did not affect retrovirus survival
